Tests used:
[1] = Comparison with 1,4-butanediol-β-aminocrotonate and methyl-β-aminocrotonate, rigid co-polymer, 185° C.; details: 0.5 part
Description: (a) Comparison with 1,4-butanediol-β-aminocrotonate and with methyl-β-aminocrotonate.
The following rigid co-polymer was prepared:
The sheets were heated in a ventilated oven at 185° C. and the following results were obtained: […]

[2] = Static thermostability (GARDNER method), rigid PVC sheets, 185° C., equimolecular quantities; details: 1.55×10^-3 mol
Description: (§1) This study was carried out according to the GARDNER method, described in British Pat. No. 1,489,685.
(§2) The reference substance was 2-phenyl-indole, a well-known and widely used stabilizer.
(§3) The stabilizer (dihydropyridine or 2-phenyl-indole) and the other usual ingredients were mixed with powdered vinyl resins and the mixtures were calendered at a temperature of 160° C. to give rigid sheets.
(§4) The sheets were then heated in a thermostated oven (185° C. or 210° C.) for different intervals of time until incipient carbonization.
(§5) The coloration of the samples was compared to a standard scale of coloration, known as the GARDNER scale and was expressed in terms of the reference figures of the GARDNER scale.
(§6) This study was carried out with the following resin:
(§7) Polyvinyl chloride resin
(§8) SL 2016 is a solution of zinc-2-ethyl-hexanoate in a mixture of hydrocarbons boiling between 158° C. and 184° C.
Finally, a trail was performed at 185° C., with resins containing equimolecular quantities of the dihydropyridines or of 2-phenyl-indole, namely 1.55×10^-3 mol. In this case too, the samples were removed from the oven every 6 minutes over a period of 24 minutes and then every 3 minutes until the 42nd minute (or until carbonization).

[3] = Static thermostability (GARDNER method), rigid PVC sheets, 185° C., 0.3 part stabilizer
Description: as §1, §2, §3, §4, §5, §6, §7, §8
A second trial was performed at a temperature of 185° C., with a resin containing 0.3 part of stabilizer, the samples being removed from the oven every 6 minutes over a period of 24 minutes, then every 3 minutes until the 42nd minute (or until carbonization).

[4] = Static thermostability (GARDNER method), rigid PVC sheets, 210° C., 0.3 part stabilizer
Description: as §1, §2, §3, §4, §5, §6, §7, §8
The first trial was carried out at 210° C. with a resin containing 0.3 part by weight of stabilizer, the sheets being removed from the oven every three minutes over a period of 21 minutes.

Row | Compound | coloration, GARDNER scale ([1]; 0 min) | coloration, GARDNER scale ([1]; 2 min) | coloration, GARDNER scale ([1]; 4 min) | coloration, GARDNER scale ([1]; 6 min) | coloration, GARDNER scale ([1]; 8 min) | coloration, GARDNER scale ([1]; 10 min) | coloration, GARDNER scale ([1]; 12 min) | coloration, GARDNER scale ([2]; 0 min) | coloration, GARDNER scale ([2]; 6 min) | coloration, GARDNER scale ([2]; 12 min) | coloration, GARDNER scale ([2]; 18 min) | coloration, GARDNER scale ([2]; 24 min) | coloration, GARDNER scale ([2]; 27 min) | coloration, GARDNER scale ([2]; 30 min) | coloration, GARDNER scale ([3]; 0 min) | coloration, GARDNER scale ([3]; 6 min) | coloration, GARDNER scale ([3]; 12 min) | coloration, GARDNER scale ([3]; 18 min) | coloration, GARDNER scale ([3]; 24 min) | coloration, GARDNER scale ([3]; 27 min) | further results
1 | CC(N)=CC(=O)OCCCCOC(=O)C=C(C)N [1,4-butanediol-β-aminocrotonate, reference compound] | 1 | 1 | 4 | 10 | 13 | 15 | 18 | – | – | – | – | – | – | – | – | – | – | – | – | – | –
2 | CC1=C(C(=O)OCc2ccccc2Cl)CC(C(=O)OCc2ccccc2Cl)=C(C)N1 [Compound 5, 2,6-Dimethyl-3,5-di-(2'-carbochloro-benzyloxy)-1,4-dihydropyridine] | – | – | – | – | – | – | – | 1 | 1 | 1 | 5 | 10 | 11 | 13 | 1 | 1 | 2 | 9 | 11 | 11 | coloration, GARDNER scale ([2]; 33 min): 14; coloration, GARDNER scale ([2]; 36 min): 15; coloration, GARDNER scale ([2]; 39 min): Burnt; coloration, GARDNER scale ([3]; 30 min): 13; coloration, GARDNER scale ([3]; 33 min): 14; coloration, GARDNER scale ([3]; 36 min): 14; coloration, GARDNER scale ([3]; 39 min): Burnt; coloration, GARDNER scale ([4]; 0 min): 1; coloration of the resins, in words ([4]; 0 to 3 minutes): considerably less; coloration, GARDNER scale ([4]; 3 min): 1; coloration, GARDNER scale ([4]; 6 min): 2; coloration, GARDNER scale ([4]; 9 min): 3; coloration, GARDNER scale ([4]; 12 min): 6; coloration, GARDNER scale ([4]; 15 min): 10.5; coloration, GARDNER scale ([4]; 18 min): Burnt
3 | CC1=C(C(=O)OCc2ccccc2C)CC(C(=O)OCc2ccccc2C)=C(C)N1 [Compound 6, 2,6-Dimethyl-3,5-di-(2'-carbomethyl-benzyloxy)-1,4-dihydropyridine] | – | – | – | – | – | – | – | 1 | 1 | 2 | 4 | 10 | 13 | B. | 1 | 1 | 2 | 9 | 11 | 11 | coloration, GARDNER scale ([3]; 30 min): 13; coloration, GARDNER scale ([3]; 33 min): 14; coloration, GARDNER scale ([3]; 36 min): Burnt; coloration, GARDNER scale ([4]; 0 min): 1; coloration, GARDNER scale ([4]; 3 min): 1; coloration, GARDNER scale ([4]; 6 min): 1.5; coloration, GARDNER scale ([4]; 9 min): 3; coloration, GARDNER scale ([4]; 12 min): 4; coloration, GARDNER scale ([4]; 15 min): 7; coloration, GARDNER scale ([4]; 18 min): Burnt
4 | COC(=O)/C=C(/C)N [Methyl-β-aminocrotonate, methyl-β-aminocrotonate, reference compound] | 1 | 1 | 5 | 12 | 14 | 17 | 18 | – | – | – | – | – | – | – | – | – | – | – | – | – | –
